Source: ChEMBL document CHEMBL1201862, “PubChem BioAssay data set” (2004)
The source made the active and inactive calls.

Tests used:
[1] = biological target: T1, Low molecular weight phosphotyrosine protein phosphatase (Homo sapiens, UniProt P24666); test: LMPTP phosphatase inhibitors, dose response, biochemical, OMFP substrate, fluorescence intensity, set 2 (AID 743307); format: functional
T1 sequence (P24666 whole entry): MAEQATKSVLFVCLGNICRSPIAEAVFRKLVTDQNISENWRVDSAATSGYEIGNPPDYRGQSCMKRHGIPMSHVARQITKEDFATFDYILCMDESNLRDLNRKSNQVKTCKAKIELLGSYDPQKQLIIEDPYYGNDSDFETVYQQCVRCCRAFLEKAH

[2] = biological target: T1, Low molecular weight phosphotyrosine protein phosphatase; test: LMPTP phosphatase inhibitors, colorimetric pNPP readout, dose response, orthogonal assay, biochemical, absorbance, pNPP substrate, LMPTP-A isoform, set 2 (AID 743308); format: functional
[3] = biological target: T2, Heat shock factor protein 1 (Mus musculus, UniProt P38532); test: HSF1 potentiators in luciferase reporter cells, confirmation, cell-based, NIH3T3, luminescence, dose retest (AID 435004); format: functional;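 also: stress induced by proteasome inhibitor MG132 added 30 min after compound; luciferase reporter driven by HSF1 response element in NIH3T3 cells; actives raise luminescence as potentiators of the MG132 stress response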
T2 sequence (P38532 whole entry): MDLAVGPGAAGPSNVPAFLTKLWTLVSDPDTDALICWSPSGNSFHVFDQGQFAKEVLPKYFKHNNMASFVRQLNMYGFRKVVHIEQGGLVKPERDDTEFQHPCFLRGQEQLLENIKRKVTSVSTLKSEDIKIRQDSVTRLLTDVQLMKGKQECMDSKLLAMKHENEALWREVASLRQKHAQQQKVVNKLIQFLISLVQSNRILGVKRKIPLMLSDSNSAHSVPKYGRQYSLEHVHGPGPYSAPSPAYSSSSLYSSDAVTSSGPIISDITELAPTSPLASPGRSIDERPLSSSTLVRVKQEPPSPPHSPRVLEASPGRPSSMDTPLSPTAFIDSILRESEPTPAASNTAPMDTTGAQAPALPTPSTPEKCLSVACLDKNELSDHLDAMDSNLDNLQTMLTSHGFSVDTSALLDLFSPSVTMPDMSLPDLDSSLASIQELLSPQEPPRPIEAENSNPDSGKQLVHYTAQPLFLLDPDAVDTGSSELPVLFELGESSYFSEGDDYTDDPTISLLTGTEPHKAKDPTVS

[4] = Luminescence Cell-Based Dose Confirmation HTS to Identify Inhibitors of Platelet Dense Granule Release. [Related pubchem assays: 1663 (Primary HTS), 1678 (Summary of Project)]; format: functional
[5] = Fluorescence Cell-Based Dose Response to Identify Inhibitors of Thrombin Receptor-Activating Peptide SFLLRN-Mediated P-Selectin Induction on Platelets. [Related pubchem assays: 1663 (Primary HTS), 1889 (retest at dose ), 1891 (counterscreen), 1678 (Project Summary)]; format: functional
[6] = Fluorescence-based cell-based high throughput dose response assay for inhibitors of the interaction of nucleotide-binding oligomerization domain containing 2 (NOD2) and the receptor-interacting serine-threonine kinase 2 (RIPK2).; format: functional; conditions: Homo sapiens
[7] = biological target: Luciferin 4-monooxygenase (Photinus pyralis, UniProt P08659); test: firefly luciferase enzyme inhibitors, dose response, biochemical, luminescence (AID 1891)
Sequence of Luciferin 4-monooxygenase (P08659 whole entry): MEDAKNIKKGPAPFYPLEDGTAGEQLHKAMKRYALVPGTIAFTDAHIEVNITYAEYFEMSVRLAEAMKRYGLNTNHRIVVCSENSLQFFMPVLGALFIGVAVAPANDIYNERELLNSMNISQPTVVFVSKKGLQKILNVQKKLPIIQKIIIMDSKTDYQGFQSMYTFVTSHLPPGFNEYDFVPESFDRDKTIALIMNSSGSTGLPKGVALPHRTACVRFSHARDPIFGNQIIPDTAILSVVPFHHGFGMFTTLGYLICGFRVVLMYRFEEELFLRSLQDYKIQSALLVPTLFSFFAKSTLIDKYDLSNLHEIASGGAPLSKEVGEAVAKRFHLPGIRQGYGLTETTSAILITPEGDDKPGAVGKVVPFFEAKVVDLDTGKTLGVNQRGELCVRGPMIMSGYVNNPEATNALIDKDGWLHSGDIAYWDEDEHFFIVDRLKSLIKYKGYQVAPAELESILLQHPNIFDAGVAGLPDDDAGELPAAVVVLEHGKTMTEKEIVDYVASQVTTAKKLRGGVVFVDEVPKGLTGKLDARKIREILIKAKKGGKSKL

Beta-galactosidase = Beta-galactosidase (Escherichia coli, UniProt Q8VNN2); test: beta-galactosidase enzyme inhibitors and activators, dose response, artefact control for CCR6 antagonist project, biochemical, E. coli enzyme, set 3 (AID 504712); format: functional
Sequence of Beta-galactosidase (Q8VNN2 whole entry): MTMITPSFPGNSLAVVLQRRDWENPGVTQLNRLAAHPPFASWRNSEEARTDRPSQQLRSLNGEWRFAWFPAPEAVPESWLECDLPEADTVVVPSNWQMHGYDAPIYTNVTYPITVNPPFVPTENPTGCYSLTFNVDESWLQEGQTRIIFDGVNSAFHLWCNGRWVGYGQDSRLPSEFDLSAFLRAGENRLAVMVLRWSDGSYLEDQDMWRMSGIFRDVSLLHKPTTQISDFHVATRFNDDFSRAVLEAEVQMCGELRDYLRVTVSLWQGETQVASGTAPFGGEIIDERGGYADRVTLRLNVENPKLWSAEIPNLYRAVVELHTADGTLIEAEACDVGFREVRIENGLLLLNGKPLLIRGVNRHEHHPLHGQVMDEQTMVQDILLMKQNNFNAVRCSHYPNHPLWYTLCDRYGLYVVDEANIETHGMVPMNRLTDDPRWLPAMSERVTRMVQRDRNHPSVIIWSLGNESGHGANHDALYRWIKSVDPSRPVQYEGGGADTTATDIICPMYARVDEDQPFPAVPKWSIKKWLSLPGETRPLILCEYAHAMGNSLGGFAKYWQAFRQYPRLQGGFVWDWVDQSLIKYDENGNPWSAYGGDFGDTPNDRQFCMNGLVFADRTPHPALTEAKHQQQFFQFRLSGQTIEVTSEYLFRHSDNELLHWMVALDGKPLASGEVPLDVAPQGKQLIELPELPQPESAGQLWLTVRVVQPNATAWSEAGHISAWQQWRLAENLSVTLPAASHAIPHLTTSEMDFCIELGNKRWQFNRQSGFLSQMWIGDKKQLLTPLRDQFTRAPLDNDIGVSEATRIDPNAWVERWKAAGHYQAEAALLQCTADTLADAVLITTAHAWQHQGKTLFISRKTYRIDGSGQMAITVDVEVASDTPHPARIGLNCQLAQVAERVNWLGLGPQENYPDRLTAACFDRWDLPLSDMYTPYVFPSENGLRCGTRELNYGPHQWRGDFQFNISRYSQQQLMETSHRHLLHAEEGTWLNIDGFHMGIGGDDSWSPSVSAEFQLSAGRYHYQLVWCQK

Beta Lactamase = Beta Lactamase (Pseudomonas aeruginosa, UniProt Q932Y6); test: beta-lactamase reporter inhibitor potency, dose response, artefact control for NOD2-RIPK2 interaction inhibitor project, BLA reporter cells, FRET fluorescence (AID 651552); format: functional, cell-based
Sequence of Beta Lactamase (Q932Y6 whole entry): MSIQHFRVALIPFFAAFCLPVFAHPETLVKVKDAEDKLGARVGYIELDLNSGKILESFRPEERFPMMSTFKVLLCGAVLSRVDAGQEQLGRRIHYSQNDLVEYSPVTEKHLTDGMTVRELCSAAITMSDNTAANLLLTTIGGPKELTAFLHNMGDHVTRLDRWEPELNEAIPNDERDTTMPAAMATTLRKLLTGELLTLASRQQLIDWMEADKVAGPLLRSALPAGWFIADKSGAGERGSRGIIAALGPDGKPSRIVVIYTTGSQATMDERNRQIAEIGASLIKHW

[8] = HeLa 2N DNA content increase, dose response, cell-based, IC50 (AID 1117349); format: functional
[9] = Concentration-dependent survival of SW480 colon cancer line, luminescence detection with CellTiter-Glo, half-maximal inhibitory concentration (AID 1117338); format: functional
[10] = SNU-C1 cell viability reduction, dose response, CellTiter-Glo luminescence (AID 1117323); format: functional, cell-based
[11] = CellTiter-Glo luminescent dose response of DLD-1 viability loss (AID 1117352); format: functional
[12] = cytotoxicity toward Colo320 cells – cell-based, CellTiter-Glo luminescence, IC50, dose response (AID 1117334); format: functional; conditions: COLO 320
[13] = cytotoxicity toward HCT116 cells – cell-based, CellTiter-Glo luminescence, IC50, dose response (AID 1117332); format: functional; conditions: HCT-116
[14] = RKO cell viability reduction, dose response, CellTiter-Glo luminescence (AID 1117322); format: functional
[15] = HCT116 cell viability decrease, GSK3B pretreatment – CellTiter-Glo, IC50, dose response (AID 1117339); format: functional; conditions: HCT-116
[16] = HeLa 4N DNA content increase, dose response, cell-based, IC50 (AID 1117351); format: functional
[17] = cytotoxicity toward HT-29 cells – cell-based, CellTiter-Glo luminescence, IC50, dose response (AID 1117330); format: functional
[18] = biological target: Aryl hydrocarbon receptor (Homo sapiens, UniProt P35869); test: Luminescence-based cell-based high throughput dose response assay for activators of the Aryl Hydrocarbon Receptor (AHR). [Related pubchem assays: 2796 (Primary screen (AHR activators in singlicate)), 2845 (Confirmation screen (AHR activators in triplicate)), 434939 (Counterscreen (PXR activators in triplicate)), 2804 (Summary (AHR activators))]; format: ADME
Sequence of Aryl hydrocarbon receptor (P35869 whole entry): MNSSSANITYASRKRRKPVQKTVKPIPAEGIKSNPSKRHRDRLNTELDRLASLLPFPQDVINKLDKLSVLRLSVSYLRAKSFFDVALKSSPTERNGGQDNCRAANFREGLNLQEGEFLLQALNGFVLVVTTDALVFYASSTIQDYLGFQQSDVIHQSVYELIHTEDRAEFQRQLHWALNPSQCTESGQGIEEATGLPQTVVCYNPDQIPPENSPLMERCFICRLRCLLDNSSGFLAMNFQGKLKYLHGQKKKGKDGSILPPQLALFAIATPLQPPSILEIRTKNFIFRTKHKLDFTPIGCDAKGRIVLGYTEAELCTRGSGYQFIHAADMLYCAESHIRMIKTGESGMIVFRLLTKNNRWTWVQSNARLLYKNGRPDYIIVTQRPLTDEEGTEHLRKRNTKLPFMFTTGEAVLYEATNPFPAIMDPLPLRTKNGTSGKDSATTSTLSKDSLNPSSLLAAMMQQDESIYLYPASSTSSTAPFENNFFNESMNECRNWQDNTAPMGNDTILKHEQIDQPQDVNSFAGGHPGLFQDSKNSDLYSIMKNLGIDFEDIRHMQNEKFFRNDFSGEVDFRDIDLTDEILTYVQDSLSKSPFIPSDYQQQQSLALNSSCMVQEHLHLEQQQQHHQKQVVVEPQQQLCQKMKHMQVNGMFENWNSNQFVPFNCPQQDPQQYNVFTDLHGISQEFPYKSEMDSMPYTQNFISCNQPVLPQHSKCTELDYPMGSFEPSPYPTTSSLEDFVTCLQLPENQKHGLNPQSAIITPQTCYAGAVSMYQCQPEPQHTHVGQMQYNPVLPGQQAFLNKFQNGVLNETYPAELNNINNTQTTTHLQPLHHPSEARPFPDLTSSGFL

[19] = biological target: E3 ubiquitin-protein ligase Mdm2 (Homo sapiens, UniProt Q00987); test: enhancers of MDM2-luciferase reporter signal, concentration-effect titration, project on inhibitors of MDM2 ubiquitin ligase, cellular assay, luminescent readout, 384-well plate format (AID 1394); format: functional;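 also: MDM2 E3 inhibitors raise luminescence so EC50 is for signal enhancement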
Sequence of E3 ubiquitin-protein ligase Mdm2 (Q00987 whole entry): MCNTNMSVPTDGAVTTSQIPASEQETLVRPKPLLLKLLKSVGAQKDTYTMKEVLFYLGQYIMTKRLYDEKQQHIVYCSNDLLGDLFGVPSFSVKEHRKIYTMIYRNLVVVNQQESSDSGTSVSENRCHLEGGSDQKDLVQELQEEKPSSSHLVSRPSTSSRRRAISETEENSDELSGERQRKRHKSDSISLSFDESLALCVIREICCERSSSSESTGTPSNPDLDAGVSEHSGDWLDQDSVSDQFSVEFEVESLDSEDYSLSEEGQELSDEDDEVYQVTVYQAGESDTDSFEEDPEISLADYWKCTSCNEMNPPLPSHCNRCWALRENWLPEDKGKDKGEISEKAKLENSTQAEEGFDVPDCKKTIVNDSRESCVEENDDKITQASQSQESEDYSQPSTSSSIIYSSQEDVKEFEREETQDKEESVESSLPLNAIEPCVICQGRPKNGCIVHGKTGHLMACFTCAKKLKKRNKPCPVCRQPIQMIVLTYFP

cells = conditions: HEK293
Estrogen receptor beta = Estrogen receptor beta (Homo sapiens, UniProt Q92731);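 also: recombinant ER-beta bound to coactivator SRC1 peptide in presence of estradiol agonist; inhibitors block coactivator peptide binding and lower the FRET signal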
Sequence of Estrogen receptor beta (Q92731 whole entry): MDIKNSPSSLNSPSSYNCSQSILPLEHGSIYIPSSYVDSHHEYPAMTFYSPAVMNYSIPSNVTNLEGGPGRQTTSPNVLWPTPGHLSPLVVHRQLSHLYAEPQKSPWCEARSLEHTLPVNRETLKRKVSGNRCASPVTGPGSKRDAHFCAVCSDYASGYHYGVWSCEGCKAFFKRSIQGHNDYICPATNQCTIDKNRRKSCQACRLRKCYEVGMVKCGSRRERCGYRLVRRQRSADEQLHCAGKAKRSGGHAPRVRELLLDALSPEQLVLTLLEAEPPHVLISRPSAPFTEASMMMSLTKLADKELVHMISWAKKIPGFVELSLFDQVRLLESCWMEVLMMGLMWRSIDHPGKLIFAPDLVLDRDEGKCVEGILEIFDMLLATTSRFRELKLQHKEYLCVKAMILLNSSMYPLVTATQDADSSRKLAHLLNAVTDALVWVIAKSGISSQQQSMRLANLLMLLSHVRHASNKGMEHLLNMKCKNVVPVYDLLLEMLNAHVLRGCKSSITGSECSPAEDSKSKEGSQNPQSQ

Compound: CCCCNc1nc(-c2ccccc2)nc2ccccc12
- IC50 [1]: 23.2 µM (inactive)
- IC50 [2]: > 80 µM (inactive)

Compound: Cc1ccc(NN2C(=O)C=C(c3ccccc3)C2=O)cc1
- EC50 [3]: 10.5 µM (active)
- EC50 [4]: 5.06 µM (active)
- EC50 [5]: < 30 µM (active)
- IC50 [6]: 1.72 µM (active)
- EC50 [7]: > 112 µM (not active)
- IC50 (Beta-galactosidase): > 66.6 µM (inactive)
- IC50 (Beta Lactamase): 28.7 µM (inactive)

Compound: CCC(=O)c1ccc(O)cc1 [PAROXYPROPIONE]
- IC50 [8]: > 10 µM (inactive)
- IC50 [9]: 4.1 µM (active)
- IC50 [10]: > 20 µM (inactive)
- IC50 [11]: 6.67 µM (inactive)
- IC50 [12]: > 20 µM (inactive)
- IC50 [13]: > 20 µM (inactive)
- IC50 [14]: 7.8 µM (inactive)
- IC50 [15]: 6.25 µM (inactive)
- IC50 [16]: > 10 µM (inactive)
- IC50 [17]: > 20 µM (inactive)

Compound: Cc1ccc(-c2cc(-c3cccs3)[nH]n2)c(O)c1
- EC50 [18]: 1.21 µM (active)

Compound: COc1ccc(C(=O)NCCSC2CCCCC2)cc1
- EC50 [19]: 13.6 µM (not active)

Compound: Fc1ccc2c(c1)[nH]c(=S)n2CCOc1ccccc1
- AC50 (cells): > 52 µM (inactive)

Compound: CC(C)COC(=O)c1nnsc1NC(=O)Nc1ccccc1
- IC50 (Estrogen receptor beta): > 50 µM (not active)
